Source: patent US11639353B2, “Cyclobutanes- and azetidine-containing mono and spirocyclic compounds as αV integrin inhibitors” (BRISTOL-MYERS SQUIBB COMPANY, priority 2016, dated 2023)

Columns and labels:
Conditions in all cases: alternatively SPA-based assay
human αVβ6 = target: T1, human αVβ6 (Homo sapiens, UniProt P06756+P18564); assay: human αVβ6 HTRF binding assay
T1 construct: purchased R & D systems 3817-AV
Summary of the method: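 Biotinylated recombinant human αVβ6 (1.25 nM final) incubated with FITC-fibronectin (5 nM final) 1 h at RT, then streptavidin-terbium (0.625 nM final) added and left overnight at RT in the dark before HTRF reading. Buffer: 20 mM Tris pH 7.4, 1 mM MgCl2, 1 mM MnCl2, 0.01% Tween 20, 0.01% BSA.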

human αVβ1 = human αVβ1 (Homo sapiens, UniProt P05556+P06756); assay: human αVβ1 HTRF binding assay
Procedure: (§1) All binding assays used the HTRF (homogeneous time resolved fluorescence) technology from Cisbio International, therefore all assays are described as HTRF binding assays. The assay results for the Examples are listed above together with the characterization data. The HTRF binding assays are established for the following integrins: human αVβ6, human αVβ1, human αVβ3, human αVβ5, and human αVβ8. All assays used the following assay buffer: 20 mM Tris, pH 7.4, 1 mM MgCl2, 1 mM MnCl2, 0.01% Tween 20, and 0.01% BSA. Alternatively, a SPA-based assay was used for evaluation of receptor binding.
(§2) The SPA-based assay was carried out according to the protocol and procedures similar to the ones described in the following reference with appropriate modifications to agents and ligands which are readily understood by one skilled in the art: Pachter J A, Zhang R, Mayer-Ezell R., “Scintillation proximity assay to measure binding of soluble fibronectin to antibody-captured αVβ1 integrin” Anal Biochem. 1995 Sep. 1; 230(1):101-7.

human αVβ3 = human αVβ3 (Homo sapiens, UniProt P05106+P06756); assay: human αVβ3 HTRF binding assay
Procedure: as §1, §2

human αVβ5 = human αVβ5 (Homo sapiens, UniProt P06756+P18084); assay: human αVβ5 HTRF binding assay
Procedure: as §1, §2

human αVβ8 = human αVβ8 (Homo sapiens, UniProt P06756+P26012); assay: human αVβ8 HTRF binding assay
Procedure: as §1, §2

Chain of human αVβ8 (P06756 31-992 limits assumed): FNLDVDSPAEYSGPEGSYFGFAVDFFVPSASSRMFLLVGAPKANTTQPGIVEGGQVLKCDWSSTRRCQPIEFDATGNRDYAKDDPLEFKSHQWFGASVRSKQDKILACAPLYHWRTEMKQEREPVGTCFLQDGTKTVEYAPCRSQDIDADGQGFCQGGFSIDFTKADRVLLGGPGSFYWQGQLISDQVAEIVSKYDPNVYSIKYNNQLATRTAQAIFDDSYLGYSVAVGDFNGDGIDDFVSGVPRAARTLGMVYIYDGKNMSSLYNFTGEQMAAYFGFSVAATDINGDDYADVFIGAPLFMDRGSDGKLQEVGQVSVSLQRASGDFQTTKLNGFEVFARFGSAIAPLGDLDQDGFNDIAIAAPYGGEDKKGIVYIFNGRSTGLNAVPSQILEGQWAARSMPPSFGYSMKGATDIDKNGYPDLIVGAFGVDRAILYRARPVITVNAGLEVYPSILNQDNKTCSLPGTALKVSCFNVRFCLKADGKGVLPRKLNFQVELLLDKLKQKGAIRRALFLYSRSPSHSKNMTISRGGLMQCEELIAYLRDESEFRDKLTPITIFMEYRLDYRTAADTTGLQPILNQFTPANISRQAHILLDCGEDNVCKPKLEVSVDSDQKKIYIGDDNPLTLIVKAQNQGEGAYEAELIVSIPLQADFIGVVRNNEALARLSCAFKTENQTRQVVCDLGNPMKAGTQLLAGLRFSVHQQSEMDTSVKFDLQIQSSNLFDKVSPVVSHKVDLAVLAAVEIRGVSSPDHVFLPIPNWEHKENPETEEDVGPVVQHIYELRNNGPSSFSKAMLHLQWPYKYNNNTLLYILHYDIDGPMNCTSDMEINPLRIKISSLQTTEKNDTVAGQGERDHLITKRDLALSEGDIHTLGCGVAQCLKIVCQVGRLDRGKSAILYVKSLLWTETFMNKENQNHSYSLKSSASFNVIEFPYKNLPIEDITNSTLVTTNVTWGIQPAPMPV
Chain of human αVβ8 (P26012 43-684 limits assumed): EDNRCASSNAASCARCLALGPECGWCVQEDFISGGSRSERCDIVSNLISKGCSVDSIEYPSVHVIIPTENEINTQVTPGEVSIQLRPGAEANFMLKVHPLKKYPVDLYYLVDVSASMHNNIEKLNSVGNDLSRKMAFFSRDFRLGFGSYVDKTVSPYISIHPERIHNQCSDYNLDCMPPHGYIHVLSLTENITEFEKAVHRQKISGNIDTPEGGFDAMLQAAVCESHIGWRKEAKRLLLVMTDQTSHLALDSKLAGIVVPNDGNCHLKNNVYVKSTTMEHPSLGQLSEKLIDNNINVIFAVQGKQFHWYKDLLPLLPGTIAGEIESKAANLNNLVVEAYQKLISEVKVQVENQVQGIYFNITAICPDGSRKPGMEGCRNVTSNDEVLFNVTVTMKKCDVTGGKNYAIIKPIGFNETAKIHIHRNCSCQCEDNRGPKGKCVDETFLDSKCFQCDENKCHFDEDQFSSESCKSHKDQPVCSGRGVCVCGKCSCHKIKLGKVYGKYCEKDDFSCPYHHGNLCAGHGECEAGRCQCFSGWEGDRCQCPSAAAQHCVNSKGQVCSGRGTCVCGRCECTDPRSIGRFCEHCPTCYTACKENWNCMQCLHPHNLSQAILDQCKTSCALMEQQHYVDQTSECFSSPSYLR
T1 sequence (P06756 31-992 limits assumed): as the sequence (P06756 31-992 limits assumed) above
T1 sequence (P18564 22-707 limits assumed): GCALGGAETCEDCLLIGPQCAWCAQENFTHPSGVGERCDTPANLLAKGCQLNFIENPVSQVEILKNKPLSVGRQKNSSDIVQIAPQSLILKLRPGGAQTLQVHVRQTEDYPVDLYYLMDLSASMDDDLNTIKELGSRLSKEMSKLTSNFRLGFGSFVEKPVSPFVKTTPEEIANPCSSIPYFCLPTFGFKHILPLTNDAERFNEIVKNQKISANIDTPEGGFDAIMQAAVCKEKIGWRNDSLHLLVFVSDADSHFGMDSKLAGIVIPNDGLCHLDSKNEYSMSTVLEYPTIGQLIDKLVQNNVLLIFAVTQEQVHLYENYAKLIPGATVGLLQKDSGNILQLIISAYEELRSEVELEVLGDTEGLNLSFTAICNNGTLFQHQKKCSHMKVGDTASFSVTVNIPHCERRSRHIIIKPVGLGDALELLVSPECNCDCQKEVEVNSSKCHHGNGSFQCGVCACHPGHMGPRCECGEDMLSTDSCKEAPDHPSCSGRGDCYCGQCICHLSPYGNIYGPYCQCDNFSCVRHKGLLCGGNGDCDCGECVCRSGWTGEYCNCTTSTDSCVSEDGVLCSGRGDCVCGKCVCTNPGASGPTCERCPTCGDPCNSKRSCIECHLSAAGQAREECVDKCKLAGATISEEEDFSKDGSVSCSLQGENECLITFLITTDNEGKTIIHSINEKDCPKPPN
Chain of human αVβ1 (P06756 31-992 limits assumed): as the sequence (P06756 31-992 limits assumed) above
Chain of human αVβ1 (P05556 21-728 limits assumed): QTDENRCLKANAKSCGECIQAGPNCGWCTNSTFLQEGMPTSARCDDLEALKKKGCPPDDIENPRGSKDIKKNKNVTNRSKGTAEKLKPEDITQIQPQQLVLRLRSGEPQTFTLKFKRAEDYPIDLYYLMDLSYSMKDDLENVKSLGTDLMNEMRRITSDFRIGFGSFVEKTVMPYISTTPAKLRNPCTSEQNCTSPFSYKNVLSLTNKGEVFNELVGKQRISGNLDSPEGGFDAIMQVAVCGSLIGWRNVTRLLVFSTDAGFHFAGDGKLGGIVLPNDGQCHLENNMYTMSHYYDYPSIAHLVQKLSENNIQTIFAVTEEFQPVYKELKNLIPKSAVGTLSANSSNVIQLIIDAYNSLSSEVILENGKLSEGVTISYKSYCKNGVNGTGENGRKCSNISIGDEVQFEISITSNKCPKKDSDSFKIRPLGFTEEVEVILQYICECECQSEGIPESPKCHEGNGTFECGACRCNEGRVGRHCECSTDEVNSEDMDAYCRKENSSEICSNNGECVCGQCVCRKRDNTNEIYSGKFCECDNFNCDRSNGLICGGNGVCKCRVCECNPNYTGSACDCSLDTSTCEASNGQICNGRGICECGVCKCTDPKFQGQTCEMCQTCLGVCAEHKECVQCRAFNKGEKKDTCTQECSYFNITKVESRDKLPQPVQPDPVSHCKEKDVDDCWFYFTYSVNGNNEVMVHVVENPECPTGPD
Chain of human αVβ3 (P06756 31-992 limits assumed): as the sequence (P06756 31-992 limits assumed) above
Chain of human αVβ3 (P05106 27-718 limits assumed): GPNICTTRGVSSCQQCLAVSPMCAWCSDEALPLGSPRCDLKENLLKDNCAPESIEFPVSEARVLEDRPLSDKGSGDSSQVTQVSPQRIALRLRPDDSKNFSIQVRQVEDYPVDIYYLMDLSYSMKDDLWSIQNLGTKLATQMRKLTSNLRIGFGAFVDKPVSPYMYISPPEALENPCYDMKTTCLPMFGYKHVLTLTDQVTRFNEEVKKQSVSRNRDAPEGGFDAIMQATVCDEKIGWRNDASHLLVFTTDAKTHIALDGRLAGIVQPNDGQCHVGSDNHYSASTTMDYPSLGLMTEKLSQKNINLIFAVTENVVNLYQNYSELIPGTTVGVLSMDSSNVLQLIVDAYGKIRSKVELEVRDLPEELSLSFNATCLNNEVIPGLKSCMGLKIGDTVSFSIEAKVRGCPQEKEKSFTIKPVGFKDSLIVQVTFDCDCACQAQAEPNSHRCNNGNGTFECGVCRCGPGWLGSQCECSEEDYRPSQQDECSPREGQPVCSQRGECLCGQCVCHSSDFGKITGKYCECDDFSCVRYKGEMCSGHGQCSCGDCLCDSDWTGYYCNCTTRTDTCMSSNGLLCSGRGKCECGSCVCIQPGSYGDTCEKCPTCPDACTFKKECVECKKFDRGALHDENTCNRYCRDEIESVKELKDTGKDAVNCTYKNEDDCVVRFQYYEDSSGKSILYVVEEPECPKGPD
Chain of human αVβ5 (P06756 31-992 limits assumed): as the sequence (P06756 31-992 limits assumed) above
Chain of human αVβ5 (P18084 24-719 limits assumed): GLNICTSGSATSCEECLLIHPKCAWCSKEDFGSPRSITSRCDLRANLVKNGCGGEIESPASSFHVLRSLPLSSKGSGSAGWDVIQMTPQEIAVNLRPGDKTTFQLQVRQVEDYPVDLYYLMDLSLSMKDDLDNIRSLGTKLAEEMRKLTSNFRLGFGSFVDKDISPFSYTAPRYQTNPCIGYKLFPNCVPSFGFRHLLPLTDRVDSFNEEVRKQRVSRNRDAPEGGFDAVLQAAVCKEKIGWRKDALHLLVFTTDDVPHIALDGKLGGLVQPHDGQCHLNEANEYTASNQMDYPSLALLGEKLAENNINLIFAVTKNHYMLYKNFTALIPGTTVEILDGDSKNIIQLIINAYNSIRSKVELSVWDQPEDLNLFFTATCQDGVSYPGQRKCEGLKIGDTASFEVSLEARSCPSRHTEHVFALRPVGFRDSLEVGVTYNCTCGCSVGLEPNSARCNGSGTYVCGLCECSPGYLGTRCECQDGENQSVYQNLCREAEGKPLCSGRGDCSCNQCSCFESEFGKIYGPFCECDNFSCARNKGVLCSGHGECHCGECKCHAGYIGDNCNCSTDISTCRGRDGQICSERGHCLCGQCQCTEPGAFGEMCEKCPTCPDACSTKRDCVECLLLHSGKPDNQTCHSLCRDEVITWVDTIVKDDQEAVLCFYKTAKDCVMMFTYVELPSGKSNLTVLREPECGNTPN

Row | Structure (SMILES) | IC50 (human αVβ6) | IC50 (human αVβ1) | IC50 (human αVβ3) | IC50 (human αVβ5) | IC50 (human αVβ8)
1 | O=C(O)C[C@H](NC(=O)N1CC(CCc2ccc3c(n2)NCCC3)C1)c1ccc2c(c1)OCC2 [Example 97] | 0.64 nM | 710 nM | 4.4 nM | 1 nM | 280 nM
2 | O=C(O)C[C@H](NC(=O)N1CC(CCc2ccc3c(n2)NCCC3)C1)c1cnc2ccccc2c1 [Example 96] | 1.9 nM | 247 nM | 2.3 nM | 1.3 nM | 120 nM
3 | COc1ccc([C@H](CC(=O)O)N2CC(CCCCc3ccc4c(n3)NCCC4)C2=O)cn1 (stereo partly drawn) [Example 9, (3S)-3-(6-Methoxypyridin-3-yl)-3-(2-oxo-3-(4-(5,6,7,8-tetrahydro-1,8-naphthyridin-2-yl)butyl)azetidin-1-yl)propanoic acid] | 1.9 nM | 400 nM | 1.8 nM | 1.2 nM | 630 nM
4 | COc1ccc([C@H](CC(=O)O)NC(=O)N2CC(CCc3ccc4c(n3)NCCC4)C2)cc1F [Example 63] | 2.22 nM | 184 nM | 2.8 nM | 9.4 nM | 410 nM
5 | O=C(N[C@@H](CNC(=O)[C@H]1C[C@H](CCc2ccc3c(n2)NCCC3)C1)C(=O)O)OCc1ccccc1 [Example 78] | 0.97 nM | 37 nM | 4.2 nM | 0.42 nM | 38 nM
6 | COc1ncc([C@H](CC(=O)O)NC(=O)[C@H]2C[C@H](CCc3ccc4c(n3)NCCC4)C2)cn1 [Example 82] | 0.78 nM | 200 nM | 4.2 nM | 15 nM | 470 nM
7 | Cc1cc(C)c(S(=O)(=O)N[C@@H](CNC(=O)[C@H]2C[C@H](CCc3ccc4c(n3)NCCC4)C2)C(=O)O)c(C)c1 [Example 52] | 0.37 nM | 3.1 nM | 2.08 nM | 0.2 nM | 15 nM
8 | O=C(O)C[C@H](NC(=O)[C@H]1C[C@H](CCc2ccc3c(n2)NCCC3)C1)c1cnc2ccccc2c1 [Example 84] | 0.62 nM | 60 nM | 4.7 nM | 41 nM | 84 nM
9 | COc1ccc([C@H](CC(=O)O)NC(=O)N2CC(CCc3ccc4c(n3)NCCC4)C2)cn1 [Example 6, (S)-3-(6-Methoxypyridin-3-yl)-3-(3-(2-(5,6,7,8-tetrahydro-1,8-naphthyridin-2-yl)ethyl)azetidine-1-carboxamido)propanoic acid] | 2.8 nM | 510 nM | 6.3 nM | 7.7 nM | 430 nM
10 | O=C(O)C[C@@H](c1cnc2ccccc2c1)N1CC(CCCCc2ccc3c(n2)NCCC3)C1=O (some centres unmarked) [Example 106] | 2 nM | 220 nM | 2.5 nM | 5.46 nM | 270 nM
11 | COc1ncc([C@H](CC(=O)O)NC(=O)[C@H]2C[C@@H](CCc3ccc4c(n3)NCCC4)C2)cn1 [Example 83] | 2 nM | 4000 nM | 3.2 nM | 150 nM | 1400 nM
12 | O=C(N[C@@H](CNC(=O)C1(F)CN(CCc2ccc3c(n2)NCCC3)C1)C(=O)O)OCc1ccccc1 [Example 45] | 0.5 nM | 28 nM | 3.07 nM | 0.3 nM | 89 nM
13 | COc1ccc([C@H](CC(=O)O)NC(=O)[C@H]2C[C@H](CCc3ccc4c(n3)NCCC4)C2)cc1F [Example 53] | 0.52 nM | 38 nM | 2.4 nM | 1.8 nM | 130 nM
14 | O=C(N[C@@H](CNC(=O)[C@H]1C[C@@H](CCc2ccc3c(n2)NCCC3)C1)C(=O)O)OCc1ccccc1 [Example 77] | 0.54 nM | 48 nM | 2 nM | 0.01 nM | 82 nM
15 | Cc1ncc([C@H](CC(=O)O)N2CC(CCCCc3ccc4c(n3)NCCC4)C2)cn1 [Example 26, (S)-3-(2-Methylpyrimidin-5-yl)-3-(3-(4-(5,6,7,8-tetrahydro-1,8-naphthyridin-2-yl)butyl)azetidin-1-yl)propanoic acid] | 1.11 nM | 8630 nM | 1.76 nM | 2 nM | 
16 | O=C(O)C[C@@H](c1ccc2c(c1)CCO2)N1CC(CCCCc2ccc3c(n2)NCCC3)C1=O (some centres unmarked) [Example 110] | 1.4 nM | 210 nM | 7.1 nM | 34 nM | 48 nM
17 | O=C(O)C[C@H](NC(=O)[C@H]1C[C@H](CCc2ccc3c(n2)NCCC3)C1)c1ccc2c(c1)OCC2 [Example 88] | 0.87 nM | 150 nM | 2.7 nM | 1 nM | 190 nM
18 | O=C(O)C[C@H](NC(=O)C1(F)CN(CCc2ccc3c(n2)NCCC3)C1)c1cnc2ccccc2c1 [Example 80] | 0.62 nM | 900 nM | 2.3 nM | 2.1 nM | 49 nM
19 | Cc1cc(C)c(S(=O)(=O)N[C@@H](CNC(=O)C2(F)CN(CCc3ccc4c(n3)NCCC4)C2)C(=O)O)c(C)c1 [Example 13, (S)-3-(3-Fluoro-1-(2-(5,6,7,8-tetrahydro-1,8-naphthyridin-2-yl)ethyl)azetidine-3-carboxamido)-2-(2,4,6-trimethylphenylsulfonamido)propanoic acid] | 0.6 nM | 84 nM | 4.1 nM | 2 nM | 30 nM
20 | COc1ncc([C@H](CC(=O)O)N2CC(CCCCc3ccc4c(n3)NCCC4)C2=O)cn1 (some centres unmarked) [Example 69] | 3.27 nM | 1230 nM | 1.79 nM | 0.32 nM | 2000 nM
21 | Cc1cc(C)c(S(=O)(=O)N[C@@H](CNC(=O)[C@H]2C[C@@H](CCc3ccc4c(n3)NCCC4)C2)C(=O)O)c(C)c1 [Example 51] | 0.33 nM |  | 2.1 nM | 0.44 nM | 15 nM
22 | O=C(O)C[C@H](NC(=O)[C@H]1C[C@H](CCc2ccc3c(n2)NCCC3)C1)c1cncnc1 [Example 90] | 1.7 nM | 520 nM | 120 nM |  | 1100 nM
23 | COc1ccc([C@H](CC(=O)O)NC(=O)C2CC(CCc3ccc4c(n3)NCCC4)C2)cn1 (some centres unmarked) [Example 56] | 0.57 nM | 67 nM | 2 nM | 0.58 nM | 55 nM
24 | Cc1cc(C)c(S(=O)(=O)N[C@@H](CNC(=O)C2CN(CCc3ccc4c(n3)NCCC4)C2)C(=O)O)c(C)c1 [Example 36] | 0.76 nM |  | 3.8 nM | 2 nM | 9.4 nM
25 | COc1ccc([C@H](CC(=O)O)NC(=O)[C@H]2C[C@H](CCc3ccc4c(n3)NCCC4)C2)cn1 [Example 59] | 0.64 nM | 87.5 nM | 2.7 nM | 0.47 nM | 270 nM
26 | Cc1ncc([C@H](CC(=O)O)NC(=O)[C@H]2C[C@@H](CCc3ccc4c(n3)NCCC4)C2)cn1 [Example 87] | 1.1 nM | 2200 nM | 3.8 nM | 8.8 nM | 940 nM
27 | O=C(N[C@@H](CNC(=O)C1CC(CCc2ccc3c(n2)NCCC3)C1)C(=O)O)OCc1ccccc1 (some centres unmarked) [Example 58] | 0.44 nM | 7.6 nM | 2.4 nM | 0.15 nM | 62 nM
